Results taken from US20260223845A1, “METHOD FOR PRODUCING TRYPTOPHAN DECOMPOSITION PRODUCT, METHOD FOR PRODUCING FORMYLKYNURENINE, METHOD FOR PRODUCING KYNURENINE, METHOD FOR PRODUCING TRYPTOPHAN RADICAL-CONTAINING AQUEOUS SOLUTION, AND BACTERICIDAL AQUEOUS SOLUTION” (NATIONAL UNIVERSITY CORPORATION TOKAI NATIONAL HIGHER …, priority 2023, published 2026).
Where two headings read alike, the source gives them in different places.

Experiments:
Escherichia coli = assay: Bactericidal effect test of redissolved HPLC fractions on Escherichia coli suspension, colony counting method; type: cell-based; settings: component redissolved in ultrapure water, liquid temperature 24° C., mixed with Escherichia coli suspension, counted after 10 minutes; FIG. 5
Procedure: Each aqueous solution (liquid temperature: 24° C.) prepared by redissolving each component in ultrapure water was mixed with a suspension of Escherichia coli, and after 10 minutes, the viable cell count of Escherichia coli was measured by a colony counting method. The viable cell count of Escherichia coli was also measured in the same manner for the oxygen radical-unirradiated aqueous solution.

[1] = maintaining a temperature of 15° C. or lower; cited from earlier work
[2] = Bactericidal effect of oxygen radical-irradiated tryptophan-containing aqueous solution (previous research of the inventors; inference in Experimental Examples 1 to 3); type: cell-based; settings: inferred from inactive FKYN, KYN, L-Trp fractions and ESR detection of Trp⋅
Source text: Therefore, in this experimental example, an attempt was made to detect Trp⋅ by electron spin resonance (ESR) spectroscopy.
Here, as shown in FIG. 12 (b), it is known that Trp. is generated by the reaction between Trp and OH⋅. […] In the formulae in FIG. 12(b), X is indicated because it is thought that OH extracts H from Trp and X becomes H2O, but what is actually formed has not been accurately confirmed at this stage.
From the above-described Experimental Examples 1 to 3, it was confirmed that the substances primarily generated by irradiating the tryptophan-containing aqueous solution with oxygen radicals are FKYN and KYN. In addition, Trp⋅, considered to be a precursor of FKYN and KYN, was detected by ESR measurement from the oxygen radical-irradiated aqueous solution. Based on the above, it is considered that short-lived precursors of FKYN and KYN (Trp⋅ and Trp peroxide) are also expressed in large quantities by the oxygen radical irradiation in terms of total generation concentration, and it can be said that the above-described precursors are bactericidal substances.

[3] = Lifespan of tryptophan radical in aqueous solution; type: physicochemical; settings: in oxygen radical-irradiated aqueous solution
Source text: The precursor generated from Trp may be composed solely of Trp⋅, may be composed solely of Trp peroxide, or may include both Trp⋅ and Trp peroxide. […] Trp⋅ can be detected by electron spin resonance (ESR) spectroscopy. FKYN is generated by cleavage of a pyrrole ring in Trp peroxide. This cleavage occurs naturally in an aqueous solution. In other words, Trp peroxide decomposes on its own. Furthermore, since the generation of FKYN has been confirmed in the present disclosure, it is inferred that Trp peroxide is also generated, despite having a short lifespan. KYN is generated by the decomposition of FKYN.

With N[C@@H](Cc1c[nH]c2ccccc12)C(=O)O [L-Trp, L-tryptophan] the “bactericidal effect (viable cell count of Escherichia coli)” value (Escherichia coli) was “not bactericidal substances”.
In the case of NC(CC(=O)c1ccccc1NC=O)C(=O)O (stereo not drawn) [component P1, formylkynurenine], the “bactericidal effect (viable cell count of Escherichia coli)” value (Escherichia coli) was “not bactericidal substances”.
With Nc1ccccc1C(=O)CC(N)C(=O)O (stereo not drawn) [component P2, kynurenine] the “bactericidal effect (viable cell count of Escherichia coli)” value (Escherichia coli) was “not bactericidal substances”.
In the case of tryptophan radical [Trp⋅], the lifespan [1] is listed as “can be extended”, the bactericidal effect [2] is listed as “has a bactericidal effect” and the lifespan [3] is listed as “short-lived substance”.
